In US12558383B2, “American cockroach extract, preparation thereof, preparation methods therefor and applications thereof” (SICHUAN GOOD DOCTOR PANXI PHARMACEUTICAL CO., LTD, priority 2019, dated 2026):
Marks after values point to notes of the source that are not given here.

Columns and labels:
[1] = tested on: NO release, LPS induced mouse macrophages (RAW264.7); experiment: NO release of LPS-stimulated RAW264.7 macrophages (Griess method); assay type: cell-based; conditions: positive drug andrographolide group; LPS 1 μg/mL, NO at 12 h; n=3
Method: (§1) Based on TNF-a-IL-6/iNOS-NO inflammatory signal pathway, the regulatory effects of drugs MLG, MLP and MLX on LPS induced inflammation of mouse macrophages (RAW264.7) were evaluated.
(§2) The original solution of drugs MLG, MLP and MLX was diluted by 80 times, 120 times and 160 times, respectively, incubated with cells for 12 h in advance, and used to stimulate cells to induce inflammation by a final concentration of 1 μg/ml LPS. Enzyme linked immunosorbent assay (ELISA) and Griess method were used to detect the release amount of TNF-α at 50 min, and IL-6 at 4 h and NO at 12 h upon LPS stimulation.
(§3) The original solution of drugs MLG, MLP and MLX was diluted by 80 times, 120 times and 160 times respectively, incubated with cells for 12 hours in advance, and then added with 1 μg/mL LPS to stimulate cell inflammation. […]
(§4) All indexes were tested strictly in accordance with the instructions of kits. Finally, the absorbance value at the specific wavelengths were detected on an enzyme labeling instrument, and the content of indexes of each sample were calculated according to the standard curve prepared by the same method. If the absorbance value is lower than the absorbance value of the sample at the lower limit of the standard curve, it is counted as lower than the relevant value, and the relevant statistics are calculated as 0 mean and 0 variance.

[2] = tested on: IL-6 release, LPS induced mouse macrophages (RAW264.7); experiment: IL-6 release of LPS-stimulated RAW264.7 macrophages (ELISA); assay type: cell-based; conditions: positive drug andrographolide group; LPS 1 μg/mL, IL-6 at 4 h; n=3
Method: as §1, §2, §3, §4

[3] = tested on: TNF-α release, LPS induced mouse macrophages (RAW264.7); experiment: TNF-α release of LPS-stimulated RAW264.7 macrophages (ELISA); assay type: cell-based; conditions: positive drug andrographolide group; LPS 1 μg/mL, TNF-α at 50 min; n=3
Method: as §1, §2, §3, §4

[4] = tested on: skin capillary permeability induced by xylene in mice; experiment: Increase of skin capillary permeability induced by xylene in mice (Evans blue); assay type: in vivo; conditions: extracts 2 mL/kg intragastric, dexamethasone 0.375 mg/kg, once a day 7 times
Method: Fifty mice weighing 18-22 g were randomly divided into five groups according to their body weights: MLX, MLG and MLP test groups. […] One hour after the last administration, various mice were injected with 0.5% Evans blue normal saline solution by 0.1 ml/10 g bw via caudal vein, and then xylene were dropped by 30 μL/per mouse on the abdominal skin depilated 24 hours in advance. After 20 minutes, the mice were killed by removing the cervical vertebra. The blue stained skin on the abdomen was cut off, and cut into pieces with surgical scissors, placed into a test tube with a plug, added with and soaked in 5 ml of acetone normal saline (7:3), placed in the dark for 72 hours, and centrifuged at 3000 r/min for 10 minutes to obtain a supernatant. Colorimetric detection was performed at the wavelength of 590 nm on a spectral scanning multifunctional reader to measure the absorbance (OD value). The permeability is represented by OD value, and the results are statistically compared.

[5] = tested on: cotton ball granuloma in mice; experiment: Cotton ball granuloma in mice; assay type: in vivo; conditions: extracts 2 mL/kg, dexamethasone 0.2 mg/kg, 7 consecutive days, n=10
Method: Fifty mice weighing 18-22 g were taken, 10/group, half male and half female. The mice were fixed, and disinfected on the chest with iodine. Iodine was removed with 75% alcohol cotton ball. A small hole was cut in the chest, 20 mg high-pressure sterilized cotton ball was implanted into the armpit subcutaneously from the incision with ophthalmic forceps, and then the skin was sutured. […] The above groups were administrated for 7 consecutive days. Before the end of the test on the 8th day, the body weight was measured, then the mice were killed by taking off the cervical vertebra. The implanted cotton ball was taken out together with the surrounding connective tissue, removed of the adipose tissue, wet weighted, placed into the oven at 60° C. for 24 hours, and weighed on a precision balance. The weight of granuloma was obtained by subtracting the original weight of cotton ball from the weighed weight, and the comparison and statistical analysis between groups were carried out.

`C=C1CC[C@@H]2[C@](C)(CO)[C@H](O)CC[C@@]2(C)[C@@H]1C/C=C1/C(=O)OC[C@H]1O` [Andro., andrographolide] was tested, and the NO [1] was 1.86 ± 0.34 µM, the IL-6 [2] was 286.07 ± 47.81 pg/mL and the TNF-α [3] was 592.26 ± 45.7 pg/mL.

With `C[C@@H]1C[C@H]2[C@@H]3CCC4=CC(=O)C=C[C@]4(C)[C@@]3(F)[C@@H](O)C[C@]2(C)[C@@]1(O)C(=O)CO` [dexamethasone] the inhibition at 0.375 mg/kg ([4]; Mus musculus, po, 168 h, n=10, read-out: Inhibitory rate) was > 80%, the Inhibitory rate ([4]; n=10) was 80.7% and the “Dry weigh of granuloma” value [5] was 35.63 ± 8.38**^ mg. The “Wet weigh of granuloma” value [5] was 252.3 ± 33.6 mg.
